Key:
ERβ = ERβ ELISA in 3D EngNT lysates; format: cell-based, rat; conditions: GGF 200 ng/mL pretreatment, 24 h
Protocol: ERβ concentrations in 3[…] lysates were measured using the Rat ERβ ELISA Kit (Cloud-Clone, Houston, TX, USA).

[1] = system: 3D EngNT (RSC96/PC12 co-culture); assay: ROS production (cytochrome C reduction) in 3D EngNT; format: cell-based, rat; conditions: GGF 200 ng/mL pretreatment, 24 h with intestinal metabolites
Protocol: In the EngNT in vitro model, superoxide anion release was assessed by measuring cytochrome C reduction. Superoxide dismutase and cytochrome C (from Merck Life Science, Rome, Italy) were incubated for 30 min with both treated and untreated cells. Absorbance at 550 nm was recorded using a spectrometer (Infinite 200 Pro MPlex, Tecan, Männedorf, Switzerland). The results, averaged over five tests performed in triplicate, are expressed as the mean ± standard deviation (%) of lower cytochrome C nanomoles per microgram of protein relative to the control (0 line).

[2] = system: NaV 1.7, NaV 1.8, and GABA; assay: Nociception-related biomarker panel by ELISA in 3D EngNT (all markers together); format: cell-based, rat; conditions: GGF 200 ng/mL pretreatment, 24 h
Protocol: Quantification was obtained through a standard curve ranging from 6 to 400 pg/mL. NaV 1.7 was quantified on 3[…] lysates using the SCN9A/Nav1.7 ELISA Kit (LifeSpan BioSciences, Lynnwood, WA, USA). OD was correlated with the standards' concentration (0.312 to 20 ng/mL) using a standard curve. On 3[…] lysates, the Mouse Sodium Channel Protein Type 10 Subunit Alpha (SCN10A) ELISA Kit (MyBiosource, San Diego, CA, USA) quantified NaV 1.8 [64]. Comparing colour intensity (OD) to standard concentration produced a standard curve.

MPZ = MPZ ELISA in 3D EngNT lysates; format: cell-based, rat; conditions: GGF 200 ng/mL pretreatment, 24 h
Protocol: (§1) The MPZ content in 3D EngNT cell lysates was determined using the Rat ELISA kit (MyBiosource, San Diego, CA, USA). A standard curve with a range of 0.06 to 18 ng/mL was used to express the concentration as a percentage of ng/mL.

[3] = system: 3D EngNT (RSC96/PC12 co-culture); assay: MTT cell viability in 3D EngNT under demyelination (GGF 200 ng/mL); format: cell-based, rat; conditions: GGF 200 ng/mL pretreatment, 24 h with intestinal metabolites
Protocol: RSC96, a rat-derived Schwann cell line (purchased from ATCC), was cultured in Adv DMEM (Thermo Fisher Scientific, Rodano, MI, Italy) containing 1% penicillin-streptomycin, 2 mM L-glutamine, and 5% FBS [46]. The culture was maintained at 37 °C with 5% CO2 and 95% humidity in a 37 °C incubator. Experiments utilised RSC96 cells from passages 10 to 15, which were sub-cultured two or three times weekly.
The ATCC rat neural PC12 cell line was cultured in Advanced RPMI-1640 medium (Thermo Fisher Scientific, Rodano, MI, Italy). This medium contained 5% FBS, 5% horse serum (HS; Merck Life Science, Rome, Italy), and 2 mM glutamine. Cultures were maintained at 37 °C in a 5% CO2 environment with 95% humidity, ensuring they remained below confluency. Assays utilised cells between passages 3 and 13 [47]. PC12 cells are commonly used for in vitro neuroprotective chemical screening, being a suitable neuronal cell line. […]
A standard method described in the literature was employed to assess cell survival after each stimulation using the MTT-based In Vitro Toxicology Assay Kit (Merck Life Science, Rome, Italy). All solubilised materials, whether treated or untreated, were measured at 570 nm with a 690 nm correction using a spectrometer (Infinite 200 Pro MPlex, Tecan, Männedorf, Switzerland). […]

NRG1 = conditions: 3D EngNT, GGF 200 ng/mL pretreatment, 24 h
Protocol: Starting on day 14 of maturation, GGF at 200 ng/mL was added to the EngNT 3D model to damage peripheral neurons and remove substantial myelin [51]. 3D EngNT was then treated for 24 h with the intestinal metabolite of each previously collected sample.
All ELISA analyses were performed according to the manufacturers’ instructions using specific commercial kits for each biomarker. Absorbance was measured at 450 nm using a microplate reader (Infinite 200 ProMPlex, Tecan, Männedorf, Switzerland). For each assay, a standard calibration curve (range depending on the specific kit) was used to determine analyte concentrations.
NRG1 levels in 3D EngNT supernatants were measured using the FineTest NRG1 Rat ELISA Kit (Wuhan, China) [62].

p75 = p75 (NGFR) ELISA in 3D EngNT lysates; format: cell-based, rat; conditions: GGF 200 ng/mL pretreatment, 24 h
Protocol: 3[…] lysates were subjected to the Rat NGFR ELISA kit (MyBiosource, San Diego, CA, USA) in accordance with the product specifications. Quantification was obtained through a standard curve ranging from 0.312 to 20 ng/mL.

p75, MPZ, NRG1, and Erβ = assay: Neuroprotection biomarker panel by ELISA in 3D EngNT (all markers together); format: cell-based, rat; conditions: for all markers (p75, MPZ, NRG1, ERβ); GGF 200 ng/mL pretreatment
Protocol: as §1
3D EngNT cell lysates were subjected to the Rat NGFR ELISA kit (MyBiosource, San Diego, CA, USA) in accordance with the product specifications. Quantification was obtained through a standard curve ranging from 0.312 to 20 ng/mL.
ERβ concentrations in 3D EngNT lysates were measured using the Rat ERβ ELISA Kit (Cloud-Clone, Houston, TX, USA). The result was given as % ng/mL against a 0.312–20 ng/mL standard curve.

TNFα = TNFα ELISA in 3D EngNT supernatants; format: cell-based, rat; conditions: GGF 200 ng/mL pretreatment, 24 h
Excerpt: TNF-α levels in 3D EngNT supernatants were quantified using the TNF-α ELISA Kit (Merck Life Science, Rome, Italy). The results were obtained using a calibration curve (range: 24.58–6000 pg/mL).

Molecule: N[C@@H](CCC(=O)N[C@@H](CS)C(=O)NCC(=O)O)C(=O)O [GSH, Glutathione]
- Erβ levels (result in words) (ERβ): comparable to ALA and better than vitamin B6
- ROS production, antioxidant response (result in words) [1]: more pronounced reduction
- nociception-related markers NaV 1.7, NaV 1.8, GABA (result in words) [2]: neuroprotective and hypothetically anti-nociceptive effects
- MPZ levels (result in words) (MPZ): stronger, more noticeable impact than ALA and vitamin B6
- cell viability (result in words) [3]: almost as strong as ALA and vitamin B6
- NRG1 levels (result in words) (NRG1): more biological effects than ALA and vitamin B6 alone
- p75 signal (result in words) (p75): comparable to ALA

Molecule: glial growth factor 2 [GGF]
- reduction of marker levels compared to the control condition (p75, MPZ, NRG1, and Erβ): about 10%

Molecule: O=c1ccn([C@@H]2O[C@H](COP(=O)(O)O)[C@@H](O)[C@H]2O)c(=O)[nH]1 [UMP, Uridine monophosphate]
- nociception-related markers NaV 1.7, NaV 1.8, GABA (result in words) [2]: neuroprotective and hypothetically anti-nociceptive effects
- cell viability (result in words) [3]: effects even more similar
- p75 signal (result in words) (p75): comparable to ALA
- TNFα production (result in words) (TNFα): most pronounced reduction, superior to ALA

Molecule: CC(=O)N[C@@H](CS)C(=O)O [NAC, N-Acetylcysteine]
- Erβ levels (result in words) (ERβ): comparable to ALA and better than vitamin B6
- ROS production, antioxidant response (result in words) [1]: greatest effect compared to ALA and vitamin B6
- nociception-related markers NaV 1.7, NaV 1.8, GABA (result in words) [2]: neuroprotective and hypothetically anti-nociceptive effects
- MPZ levels (result in words) (MPZ): stronger, more noticeable impact than ALA and vitamin B6
- permeability compared to the control (Caco-2 cells; at 4 h, fluorescent tracer, normalised to control): 51%
- permeability (result in words) (Caco-2 cells; individual agents, 1–6 h): highest permeability of all agents
- TNFα production (result in words) (TNFα): effect slightly inferior to ALA
